Test results taken from ChEMBL document CHEMBL1133369, “Synthesis and preliminary biological evaluation of [3H]-MRE 3008-F20: the first high affinity radioligand antagonist for the human A3 adenosine receptors” (Bioorg Med Chem Lett, 2000).

Experiments:
Adenosine receptor A3 = molecular target: T1, Adenosine receptor A3 (Homo sapiens, UniProt P0DMS8); experiment: Binding affinity against human Adenosine A3 receptor in CHO cells; assay type: cell-based
T1 sequence (P0DMS8 whole entry): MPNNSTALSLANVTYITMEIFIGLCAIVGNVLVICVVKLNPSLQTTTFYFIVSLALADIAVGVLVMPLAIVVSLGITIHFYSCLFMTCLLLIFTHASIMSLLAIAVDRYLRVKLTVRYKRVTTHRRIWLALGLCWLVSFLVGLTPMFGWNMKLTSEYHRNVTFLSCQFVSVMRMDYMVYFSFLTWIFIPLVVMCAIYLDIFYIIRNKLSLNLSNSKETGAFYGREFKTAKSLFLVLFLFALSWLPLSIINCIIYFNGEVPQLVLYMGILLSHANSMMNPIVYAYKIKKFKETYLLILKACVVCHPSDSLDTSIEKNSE

[1] = molecular target: T2, Adenosine receptor A3 (Homo sapiens) (UniProt P0DMS8); experiment: Binding affinity against human AAdenosine A3 receptor in CHO cells; assay type: cell-based
T2 sequence (whole entry): T1 sequence (P0DMS8 whole entry)

Kd (Adenosine receptor A3): 0.82 nM | Bmax [1]: 297 fmol/mg
SMILES: C=CCn1cc2c(nc(NC(=O)Nc3ccc(OC)cc3)n3nc(-c4ccco4)nc23)n1
